Results as given in patent US11648254B2 (Kumquat Biosciences Inc., priority 2021, dated 2023).
Like-named read-outs stand apart in the source and are kept apart here.

Legend:
[1] = system: MIA PaCa-2 cells (K-Ras G12C); test: Ras-SOS cellular growth inhibition assay (CellTiter-Glo, 3D); assay type: cell-based; conditions: Homo sapiens
Method in brief: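 Growth read by CellTiter-Glo luminescence about 5 days after dosing with 3-fold dilutions (9 points), added one day post-seeding. Cells: MIA PaCa-2, 3D culture on ultra-low-attachment surface, medium DMEM/Ham's F12 plus 10% FCS and 2.5% horse serum; IC50 by four-parameter fit.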

SOS1 = SOS1 (Homo sapiens (Human), UniProt Q07889); test: Ras-SOS interaction assay (HTRF); assay type: biochemical
[2] = system: NCI-H1975 cells (EGFR T790M L858R); test: EGFR-SOS cellular inhibition assay (CellTiter-Glo, 3D); assay type: cell-based; conditions: Homo sapiens
[3] = MIA PaCa-2, 120 h, MIA PaCa-2, 3D proliferation, about 5 days, read-out: Bio-Cell-Prolif-3D (MiaPaca2 IC50)
[4] = K-RasG13D utilized, read-out: IC50 inhibition of SOS
[5] = K-RasG13D, read-out: IC50 value against SOS1
[6] = 120 h, NCI-H1975, 3D proliferation, about 5 days, read-out: Bio-Cell-Prolif-3D (H1975 IC50)
[7] = NCI-H1975, EGFR T790M L858R, read-out: IC50 in inhibiting growth of NCI-H1975 cell line
[8] = MIA PaCa-2, MIA PaCa-2, read-out: IC50 in inhibiting MIA PaCa-2 cell growth

Chain of SOS1 (Q07889 564-1049): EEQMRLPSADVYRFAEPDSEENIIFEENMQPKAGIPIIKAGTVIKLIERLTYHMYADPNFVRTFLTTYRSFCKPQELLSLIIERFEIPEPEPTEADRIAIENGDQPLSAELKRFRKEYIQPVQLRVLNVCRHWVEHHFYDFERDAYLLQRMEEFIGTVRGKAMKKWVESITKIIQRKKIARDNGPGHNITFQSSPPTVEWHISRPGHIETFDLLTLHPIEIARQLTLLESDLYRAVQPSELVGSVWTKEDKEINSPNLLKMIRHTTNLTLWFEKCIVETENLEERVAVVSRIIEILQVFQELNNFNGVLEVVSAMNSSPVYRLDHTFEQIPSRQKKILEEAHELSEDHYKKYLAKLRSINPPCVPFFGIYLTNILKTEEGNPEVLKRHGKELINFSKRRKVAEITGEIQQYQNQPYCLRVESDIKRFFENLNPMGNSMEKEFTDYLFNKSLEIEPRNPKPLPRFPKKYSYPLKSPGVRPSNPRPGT

Row | Compound | IC50 [1, 3] [nM] | IC50 (SOS1; [4]) [nM] | IC50 (SOS1; [5]) [nM] | IC50 [2, 6] [nM] | IC50 [2, 7] [nM] | IC50 [1, 8] [nM]
1 | Cc1nc(N[C@H](C)c2cccc(C(F)(F)F)c2C)c2cc(C3CCS(=O)(=O)CC3)c(OC3COC3)nc2n1 [Compound 249, (R)-4-(2-methyl-4-((1-(2-methyl-3-(trifluoromethyl)phenyl)ethyl)amino)-7-(oxetan-3-yloxy)pyrido[2,3-d]pyrimidin-6-yl)tetrahydro-2H-thiopyran 1,1-dioxide] | 1000 to 10000 | < 100 | < 50 | ≤ 1000 | < 500 | 
2 | Cc1nc(N[C@H](C)c2cccc(C(F)F)c2F)c2cc(C3CCN(C)CC3)c(OC3CN(C)C3)nc2n1 [Compound 252, (R)-N-(1-(3-(difluoromethyl)-2-fluorophenyl)ethyl)-2-methyl-7-((1-methylazetidin-3-yl)oxy)-6-(1-methylpiperidin-4-yl)pyrido[2,3-d]pyrimidin-4-amine] | 1000 to 10000 | < 100 | < 50 | ≤ 1000 |  | 
3 | Cc1nc(N[C@H](C)c2cccc(C(F)F)c2F)c2cc(C3CCN(C)CC3)c(OC3CNC3)nc2n1 [Compound 253, (R)-7-(azetidin-3-yloxy)-N-(1-(3-(difluoromethyl)-2-fluorophenyl)ethyl)-2-methyl-6-(1-methylpiperidin-4-yl)pyrido[2,3-d] pyrimidin-4-amine] | 1000 to 10000 | < 100 | < 50 | 1000 to 10000 |  | 
4 | C[C@@H](Nc1ncnc2nc(Cl)c(N3CCS(=O)(=O)CC3)cc12)c1cccc(C(F)F)c1F [Compound 261, (R)-4-(7-chloro-4-((1-(3-(difluoromethyl)-2-fluorophenyl)ethyl)amino)pyrido [2,3-d]pyrimidin-6-yl)thiomorpholine 1,1-dioxide] | ≤ 1000 | < 100 | < 50 | ≤ 1000 | < 500 | < 500
5 | Cc1nc(N[C@H](C)c2cccc(C(F)(F)F)c2F)c2cc(C3CCS(=O)(=O)CC3)c(Cl)nc2n1 [Compound 262, (R)-4-(7-chloro-4-((1-(2-fluoro-3-(trifluoromethyl)phenyl)ethyl)amino)-2-methylpyrido[2,3-d]pyrimidin-6-yl)tetrahydro-2H-thiopyran 1,1-dioxide] | ≤ 1000 | < 100 | < 50 | ≤ 1000 | < 500 | 
6 | Cc1nc(N[C@H](C)c2cccc(C(F)(F)C3CCN(C(C)C)CC3)c2)c2cc(C3CCN(C(C)C)CC3)c(Cl)nc2n1 [Compound 269, (R)-7-chloro-N-(1-(3-(difluoro(1-isopropylpiperidin-4-yl)methyl)phenyl)ethyl)-6-(1-isopropylpiperidin-4-yl)-2-methylpyrido[2,3-d] pyrimidin-4-amine] | ≤ 1000 | < 100 | < 50 | ≤ 1000 | < 500 | < 500
7 | COc1nc2nc(OC[C@H]3CCCN3C)nc(N[C@H](C)c3cccc(C(F)F)c3F)c2cc1C1(C#N)CC1 [Compound 270, 1-(4-(((R)-1-(3-(difluoromethyl)-2-fluorophenyl)ethyl)amino)-7-methoxy-2-(((R)-1-methylpyrrolidin-2-yl)methoxy)pyrido [2,3-d]pyrimidin-6-yl)cyclopropane-1-carbonitrile] | ≤ 1000 | < 100 | < 50 | ≤ 1000 | < 500 | < 500
8 | C#Cc1nc(N[C@H](C)c2cccc(C(F)F)c2F)c2cc(C3(C#N)CC3)c(OC)nc2n1 [Compound 276, (R)-1-(4-((1-(3-(difluoromethyl)-2-fluorophenyl)ethyl)amino)-2-ethynyl-7-methoxypyrido[2,3-d]pyrimidin-6-yl)cyclopropane-1-carbonitrile] | 1000 to 10000 | < 100 |  | 1000 to 10000 |  | 

Results, then the molecule that gave them:

Row | IC50 [1, 3] [nM] | IC50 (SOS1; [4]) [nM] | IC50 (SOS1; [5]) [nM] | IC50 [2, 6] [nM] | IC50 [2, 7] [nM] | IC50 [1, 8] [nM] | Compound
9 | > 10000 | < 100 | < 50 | 1000 to 10000 |  |  | Cc1nc(N[C@H](C)c2cccc(C(F)F)c2F)c2cc(C3CCS(=N)(=O)CC3)c(OCCN(C)C)nc2n1 (stereo partly drawn) [Compound 250, (R)-4-(4-((1-(3-(difluoromethyl)-2-fluorophenyl)ethyl)amino)-7-(2-(dimethylamino)ethoxy)-2-methylpyrido[2,3-d]pyrimidin-6-yl)-1-iminohexahydro-116-thiopyran 1-oxide]
10 | 1000 to 10000 | < 100 | < 50 | ≤ 1000 | < 500 |  | C[C@@H](Nc1ncnc2nc(OCCN(C)C)c(C3CCS(=O)(=O)CC3)cc12)c1cccc(C(F)F)c1F [Compound 251, (R)-4-(4-((1-(3-(difluoromethyl)-2-fluorophenyl)ethyl)amino)-7-(2-(dimethylamino)ethoxy)pyrido[2,3-d]pyrimidin-6-yl)tetrahydro-2H-thiopyran 1,1-dioxide]
11 | 1000 to 10000 | < 100 | < 50 | 1000 to 10000 |  |  | CCN1CCN(c2cc3c(N[C@H](C)c4cccc(C(F)F)c4F)nc(C)nc3nc2OC2CN(C)C2)CC1 [Compound 254, (R)-N-(1-(3-(difluoromethyl)-2-fluorophenyl)ethyl)-6-(4-ethylpiperazin-1-yl)-2-methyl-7-((1-methylazetidin-3-yl)oxy)pyrido[2,3-d]pyrimidin-4-amine]
12 | 1000 to 10000 | < 100 | < 50 | ≤ 1000 |  |  | CCN1CCN(c2cc3c(N[C@H](C)c4cccc(C(F)F)c4F)nc(C)nc3nc2OCCN(C)C)CC1 [Compound 255, (R)-N-(1-(3-(difluoromethyl)-2-fluorophenyl)ethyl)-7-(2-(dimethylamino)ethoxy)-6-(4-ethylpiperazin-1-yl)-2-methylpyrido[2,3-d] pyrimidin-4-amine]
13 | ≤ 1000 | < 100 | < 50 | ≤ 1000 | < 500 | < 500 | Cc1nc(N[C@H](C)c2cccc(C(F)(F)F)c2F)c2cc(N3CCS(=O)(=O)CC3)c(Cl)nc2n1 [Compound 257, (R)-4-(7-chloro-4-((1-(2-fluoro-3-(trtfluoromethyl)phenyl)ethyl)amino)-2-methylpyrido[2,3-d]pyrimidin-6-yl)thiomorpholine 1,1-dioxide]
14 | ≤ 1000 | < 100 | < 50 | ≤ 1000 | < 500 | < 500 | Cc1nc(N[C@H](C)c2cccc(C(F)(F)[C@H](C)O)c2F)c2cc(C3(C#N)CC3)c(Cl)nc2n1 [Compound 258, 1-(7-chloro-4-(((R)-1-(3-((S)-1,1-difluoro-2-hydroxypropyl)-2-fluorophenyl)ethyl)amino)-2-methylpyrido[2,3-d]pyrimidin-6-yl)cyclopropane-1-carbonitrile]
15 | ≤ 1000 | < 100 | < 50 | ≤ 1000 | < 500 | < 500 | Cc1nc(N[C@H](C)c2cccc(C(F)F)c2F)c2cc(N3CCS(=O)(=O)CC3)c(Cl)nc2n1 [Compound 259, (R)-4-(7-chloro-4-((1-(3-(difluoromethyl)-2-fluorophenyl)ethyl)amino)-2-methylpyrido[2,3-d]pyrimidin-6-yl)thiomorpholine 1,1-dioxide]
16 | ≤ 1000 | < 100 | < 50 | ≤ 1000 | < 500 | < 500 | Cc1c([C@@H](C)Nc2ncnc3nc(Cl)c(C4CCS(=O)(=O)CC4)cc23)cccc1C(F)(F)F [Compound 260, (R)-4-(7-chloro-4-((1-(2-methyl-3-(trifluoromethyl)phenyl)ethyl)amino)pyrido[2,3-d]pyrimidin-6-yl)tetrahydro-2H-thiopyran 1,1-dioxide]
17 | ≤ 1000 | < 100 | < 50 | ≤ 1000 | < 500 | < 500 | COc1nc2ncnc(N[C@H](C)c3cccc(C(F)(F)C4CCN(C(C)C)CC4)c3F)c2cc1N1CCN(C(C)C)CC1 [Compound 263, (R)—N-(1-(3-(difluoro(1-isopropylpiperidin-4-yl)methyl)-2-fluorophenyl)ethyl)-6-(4-isopropylpiperazin-1-yl)-7-methoxypyrido[2,3-d]pyrimidin-4-amine]
18 | ≤ 1000 | < 100 | < 50 | ≤ 1000 | < 500 | < 500 | C[C@H](O)C(F)(F)c1cccc([C@@H](C)Nc2ncnc3nc(Cl)c(C4(C#N)CC4)cc23)c1 [Compound 265, 1-(7-chloro-4-(((R)-1-(3-((S)-1,1-difluoro-2-hydroxypropyl)phenyl)ethyl)amino)pyrido[2,3-d]pyrimidin-6-yl) cyclopropane-1-carbonitrile]
19 | ≤ 1000 | < 100 | < 50 | ≤ 1000 | < 500 | < 500 | CC(C)N1CCC(c2cc3c(N[C@H](C)c4cccc(C(F)(F)C5CCN(C(C)C)CC5)c4)ncnc3nc2Cl)CC1 [Compound 268, (R)-7-chloro-N-(1-(3-(difluoro(1-isopropylpiperidin-4-yl)methyl)phenyl)ethyl)-6-(1-isopropylpiperidin-4-yl)pyrido[2,3-d] pyrimidin-4-amine]
20 | ≤ 1000 |  | < 50 | ≤ 1000 | < 500 |  | COc1nc2nc(C)nc(N[C@H](C)c3cccc(C(F)(F)C4CN(C)C4)c3)c2cc1N1CCS(=O)(=O)CC1 [Compound 272, (R)-4-(4-((1-(3-(difluoro(1-methylazetidin-3-yl)methyl)phenyl)ethyl)amino)-7-methoxy-2-methylpyrido[2,3-d]pyrimidin-6-yl)thiomorpholine 1,1-dioxide]
